# Test results as given in patent publication US12419869B2, “Methods of treating multiple sclerosis” (Vanda Pharmaceuticals Inc., priority 2021, dated 2025).
# Columns and labels:
# [1] = test system: peripheral lymphocyte count; type: in vivo, human
# Text: PONVORY causes a dose-dependent reduction in peripheral lymphocyte count to 30-40% of baseline values because of reversible sequestration of lymphocytes in lymphoid tissues [see Clinical Pharmacology (12.2)]. PONVORY may therefore increase the susceptibility to infections. Life-threatening and rare fatal infections have been reported in association with other sphingosine 1-phosphate (SIP) receptor modulators.
# Initiation of treatment with PONVORY should be delayed in patients with active infection until resolution. Lymphocyte counts returned to the normal range in 90% of patients within 1 week of stopping therapy in modeling studies [see Clinical Pharmacology (12.2)]. In Study 1, peripheral lymphocyte counts returned to normal range within 2 weeks after discontinuation of PONVORY, which was the first timepoint evaluated. Because residual pharmacodynamic effects, such as lowering effects on peripheral lymphocyte count, may persist for 1 to 2 weeks after discontinuation of PONVORY, vigilance for infection should be continued for 1 to 2 weeks after PONVORY is discontinued [see Warnings and Precautions (5.12)].
# In Study 1, the proportion of patients who experienced lymphocyte counts less than 0.2×10^9/L was 3.2%. Effective diagnostic and therapeutic strategies should be employed in patients with symptoms of infection while on therapy. Consider interruption of treatment with PONVORY if a patient develops a serious infection.
# [2] = test system: peripheral blood lymphocyte count; assay: Peripheral blood lymphocyte count in healthy volunteers; type: in vivo, human
# Method: In healthy volunteers, PONVORY induces a dose-dependent reduction of the peripheral blood lymphocyte count from a single dose of 5 mg onwards, with the greatest reduction observed 6 hours post-dose, caused by reversible sequestration of lymphocytes in lymphoid tissues. After 7 daily doses of 20 mg, the greatest decrease in absolute mean lymphocyte count was to 26% of baseline (650 cells/μL), observed 6 hours after administration. Peripheral blood B cells [CD19+] and T cells [CD3+], T-helper [CD3+CD4+], and T-cytotoxic [CD3+CD8+] cell subsets are all affected, while NK cells are not. T-helper cells were more sensitive to the effects of ponesimod than T-cytotoxic cells.
# in vitro = in vitro ADME; conditions: human, plasma
# Text: (§1) Ponesimod is highly bound to plasma proteins (>99%) and is mainly (78.5%) distributed in the plasma fraction of whole blood.
# plasma proteins = assay: in vitro; type: in vitro ADME
# Text: as §1
# [3] = Pharmacokinetics in renal impairment; type: in vivo, human; conditions: moderate or severe renal impairment
# Text: No dose adjustment is necessary in patients with renal impairment. […] The effect of dialysis on the PK of ponesimod has not been studied. Due to the high plasma protein binding (greater than 99%) of ponesimod, dialysis is not expected to alter the total and unbound ponesimod concentration, and no dose adjustments are anticipated based on these considerations.
# [4] = test system: CYP or UGT enzymes, or transporters; assay: In vitro investigations of drug-drug interaction potential; type: in vitro ADME; conditions: at recommended dose of 20 mg once-daily
# [5] = Coadministration with oral hormonal contraceptive; type: in vivo, human; conditions: 1 mg norethisterone/norethindrone and 35 μg ethinyl estradiol
# Text: Therefore, concomitant use of ponesimod is not expected to decrease the efficacy of hormonal contraceptives. No interaction studies have been performed with oral contraceptives containing other progestogens: however, an effect of ponesimod on their exposure is not expected.
# S1P receptor 1 = S1P receptor 1 (Homo sapiens, UniProt P21453); assay: S1P receptor binding / activity
# Chain of S1P receptor 1 (P21453 whole entry): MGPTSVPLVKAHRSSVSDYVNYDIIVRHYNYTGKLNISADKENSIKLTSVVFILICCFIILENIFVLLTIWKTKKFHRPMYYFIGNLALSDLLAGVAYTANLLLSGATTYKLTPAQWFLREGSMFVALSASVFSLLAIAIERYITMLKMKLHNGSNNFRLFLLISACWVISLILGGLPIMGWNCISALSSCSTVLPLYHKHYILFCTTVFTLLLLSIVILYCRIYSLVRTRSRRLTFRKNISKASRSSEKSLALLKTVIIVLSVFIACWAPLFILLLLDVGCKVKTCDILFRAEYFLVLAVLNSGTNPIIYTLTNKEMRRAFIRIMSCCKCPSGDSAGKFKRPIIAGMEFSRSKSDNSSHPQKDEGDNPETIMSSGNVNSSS
# Text: Ponesimod is extensively metabolized prior to excretion in humans, though unchanged ponesimod was the main circulating component in plasma. […] M13 and M12 are respectively about 20% and 6% of total drug-related exposure.
# Solubility in water = type: physicochemical
# female rats = assay: Pre- and postnatal development study in female rats, oral; type: in vivo, rat
# Text: There are no data on the presence of PONVORY in human milk, the effects on the breastfed infant, or the effects of the drug on milk production.
# rats = assay: Carcinogenesis, rats, oral up to 2 years; type: in vivo, rat
# Method: Plasma exposure at the highest dose tested in males (30 mg/kg/day) was approximately 4 times that in humans at the recommended human dose (RHD) of 20 mg.
# Ames assay = type: cell-based; conditions: in vitro
# Text: (§2) Ponesimod was negative in a battery of in vitro (Ames, chromosomal aberration in mammalian cells) and in vivo (micronucleus in rat) assays.
# mammalian cells = assay: Chromosomal aberration in mammalian cells; type: cell-based; conditions: in vitro
# Text: as §2
# rat = assay: Micronucleus in rat; conditions: in vivo
# Text: as §2
# mice, rats, and dogs = conditions: in vivo
# Text: At the higher doses tested in short-term studies, alveolar histiocytosis was associated with lung edema, emphysema, or hyalinosis, and with bronchioloalveolar hyperplasia after cessation of dosing in rats and alveolar histiocytosis and hyalinosis in dogs. Effects tended to be absent or less severe after chronic treatment. These findings are considered secondary to increased vascular permeability caused by S1P1 receptor modulation.
# [6] = test system: CYP450, UGT and non-CYP450 oxidative enzymes; assay: In vitro studies with human liver preparations (metabolism); type: in vitro ADME
# Text: Experiments with human liver preparations indicate that metabolism of ponesimod to M13 occurs primarily through a combination of non-Cytochrome P450 (CYP450) enzymatic activities. Multiple CYP450 (CYP2J2, CYP3A4, CYP3A5, CYP4F3A, and CYP4F12) and non-CYP450 enzymes catalyze the oxidation of ponesimod to M12. Ponesimod also undergoes direct glucuronidation (mainly UGT1A1 and UGT2B7).
# CYP3A4 and UGT1A1 = assay: In vitro assessments and limited clinical data, strong CYP3A4 and UGT1A1 inducers; conditions: e.g., rifampin, phenytoin, carbamazepine
# Text: It is unclear whether this decrease in ponesimod systemic exposure would be considered of clinical relevance. Coadministration of PONVORY with strong CYP3A4 and UGT1A1 inducers is not recommended.
smiles,measurement,setting,value
"CCC/N=C1\S/C(=C\c2ccc(OC[C@H](O)CO)c(Cl)c2)C(=O)N1c1ccccc1C [Ponesimod, (R)-5-[3-chloro-4-(2,3-dihydroxy-propoxy)-benz[Z]ylidene]-2-([Z]-propylimino)-3-o-tolyl-thiazolidin-4-one]",Time for peripheral lymphocyte counts to return to normal range after discontinuation,"[1]; Study 1, first timepoint evaluated",≤ 2 weeks
same,Peripheral lymphocyte count reduced to % of baseline values,[1]; dose-dependent,30-40 % of baseline
same,Proportion of patients with lymphocyte counts less than 0.2×10^9/L,"[1]; human, in vivo",3.2%
same,Absolute mean lymphocyte count at greatest decrease,[2]; after 7 daily doses of 20 mg,650 cells/μL
same,"Greatest decrease in absolute mean lymphocyte count, % of baseline","[2]; after 7 daily doses of 20 mg, 6 hours after administration",26 % of baseline
same,Time of greatest reduction of peripheral blood lymphocyte count,"[2]; post-dose, healthy volunteers",6 h
same,fraction unbound,in vitro,< 0.01
same,Distribution in the plasma fraction of whole blood,plasma proteins,78.5%
same,Plasma protein binding,"plasma proteins; human, plasma",greater than 99%
same,Change in Cmax and AUC vs normal renal function,[3],no significant changes
same,"Drug-drug interaction potential for CYP or UGT enzymes, or transporters",[4],do not show any clinically relevant drug-drug interaction potential
same,Pharmacokinetic interaction with oral hormonal contraceptive,[5],no clinically relevant pharmacokinetic interaction
same,Binding to S1P receptor 1,S1P receptor 1,binds with high affinity
same,Solubility in water,Solubility in water,practically insoluble or insoluble in water
same,No-effect dose for adverse effects on pre- and postnatal development in rats,"female rats; 5, 10, or 20 mg/kg oral",not identified
same,Plasma exposure (AUC) in dams at lowest dose tested vs humans at RHD,"female rats; rat, in vivo",less than that in humans
same,Presence in offspring after dosing of female rats during pregnancy and lactation,female rats; suggesting excretion in milk,detected in the plasma of the offspring
same,Plasma exposure at highest dose in male rats (30 mg/kg/day) relative to humans at RHD,"rats; rat, in vivo",approximately 4 times
same,Carcinogenicity findings in rats,rats; up to 30 (males) / 100 (females) mg/kg/day,did not result in an increase in tumors
same,Ames assay result,Ames assay,negative
same,Chromosomal aberration in mammalian cells result,mammalian cells,negative
same,Micronucleus in rat result,rat,negative
same,Lung findings in oral toxicity studies,"mice, rats, and dogs",Increases in lung weight and histopathology
same,Contribution of enzymes to metabolism,[6],without major contribution by any single enzyme
same,Effect of strong CYP3A4 and UGT1A1 inducers on systemic exposure,CYP3A4 and UGT1A1,may decrease the systemic exposure
